Test results published in patent publication US20090258786A1, “Controlled release agricultural products and processes for making the same” (priority 2000, published 2009).

Experiment: Controlled release soil test (irrigated soil burial test)
Assay type: physicochemical
Text: To measure the relative solubilities of the products in soil, an irrigated soil burial test was devised such that granules could be retrieved for measurement of their nitrogen content. The following is a description of the test.
Procedure for Controlled Release Soil Test
1. Screen the sample to obtain −6+7 Tyler mesh granules for the test.
4. Place 300 g of potting soil with a 40% moisture content into the container and record the weight.
7. Spread 5 grams of −6+7 Tyler mesh granules over the screen in a single layer and record the weight.
13. Mist 4 g of water into each container and immediately place the lid on container and seal.
14. After the fertilizer granules have been submerged in a humid soil environment for the allotted time (9 hours, 24 hours, and 3 days), the 150 g of soil is removed from the container.
18. Place the fertilizer granules in a laboratory oven to dry at low temperature (50° C.) for 13 hours.
20. Place the dry fertilizer sample into a 125 mL plastic sample bottle containing 20 g of de-ionized water.
21. Allow the sample to dissolve for 3 hours.
22. Place approximately 1 ml aliquot of the sample solution onto the sample stage of a refractometer(e.g., Abbe Refractometer).
23. Record the refractive index and temperature of the solution.
24. Calculate the percent urea retained from the original fertilizer sample.

## NC(N)=O [plain urea, urea]
  time in which particles went into solution, soil test: ≤ 9 h
